Source: patent EP0821692B1, “IMMUNOPOTENTIATING INOSINE MONOPHOSPHATE 5'-NUCLEOTIDASE RESISTANT DERIVATIVES AND USES THEREOF” (UNIVERSITY OF SOUTH FLORIDA, priority 1995, dated 1996)

Assays:
[1] = in vivo; cited from earlier work
[2] = test system: 5'-nucleotidase; settings: Crotalus atrox, pH 7.3

Compound | half-life [1] | Hydrolysis (%) [2] [%]
isoprinosine | less than four hours | 
Nc1ncnc2c1ncn2[C@@H]1O[C@H](COP(=O)(O)O)[C@@H](O)[C@H]1O [Adenosine MP, adenosine-5'-monophosphate] |  | 86.0
